The test addresses Tyrosine-protein kinase BTK (Homo sapiens, UniProt Q06187, C481S). As to the kind of experiment: biochemical.

The record followed here is ChEMBL document CHEMBL4334447, “Discovery of 4-Aminoquinoline-3-carboxamide Derivatives as Potent Reversible Bruton's Tyrosine Kinase Inhibitors for the Treatment of Rheumatoid Arthritis” (J Med Chem, 2019).

Tyrosine-protein kinase BTK, sequence (Q06187 whole entry C481S): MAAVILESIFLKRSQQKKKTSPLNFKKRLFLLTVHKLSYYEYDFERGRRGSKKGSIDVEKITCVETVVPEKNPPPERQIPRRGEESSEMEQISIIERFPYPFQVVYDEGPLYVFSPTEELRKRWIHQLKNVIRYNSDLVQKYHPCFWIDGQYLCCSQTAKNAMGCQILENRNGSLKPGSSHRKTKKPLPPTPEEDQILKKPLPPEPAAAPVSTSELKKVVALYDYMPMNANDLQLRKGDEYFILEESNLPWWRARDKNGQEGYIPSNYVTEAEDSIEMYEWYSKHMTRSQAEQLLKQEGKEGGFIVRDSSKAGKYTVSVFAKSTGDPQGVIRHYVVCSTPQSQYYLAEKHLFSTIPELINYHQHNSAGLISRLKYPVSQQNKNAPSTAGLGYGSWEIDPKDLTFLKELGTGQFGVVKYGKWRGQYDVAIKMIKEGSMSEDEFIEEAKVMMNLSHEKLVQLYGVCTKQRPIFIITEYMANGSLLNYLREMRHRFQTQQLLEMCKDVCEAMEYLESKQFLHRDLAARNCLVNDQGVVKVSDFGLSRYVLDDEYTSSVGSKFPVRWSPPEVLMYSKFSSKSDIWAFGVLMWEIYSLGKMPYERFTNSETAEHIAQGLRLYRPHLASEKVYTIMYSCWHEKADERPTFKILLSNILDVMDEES

`COc1cc2cn[nH]c2cc1-c1ccc(F)c2c(N)c(C(N)=O)cnc12` yielded an IC50 of 0.039 µM.
